According to ChEMBL document CHEMBL5620427, “Recent advances in Fragment-based strategies against tuberculosis” (Eur J Med Chem, 2023):
In brackets after ≈: the same amount, converted by molar mass.

Legend:
[1] = target: HTH-type transcriptional regulator EthR (Mycobacterium tuberculosis) (UniProt P9WMC1); test: Binding affinity to Mycobacterium tuberculosis EthR assessed as change in melting temperature at 20 uM by thermal shift assay
[2] = tested on: Mycobacterium tuberculosis; test: Antimycobacterial activity against Mycobacterium tuberculosis H37Rv ATCC 25618 assessed as bacterial growth inhibition; assay type: functional
[3] = target: T1, Enoyl-[acyl-carrier-protein] reductase [NADH] (Mycobacterium tuberculosis, UniProt P9WGR1); test: Inhibition of Mycobacterium tuberculosis InhA
T1 sequence (P9WGR1 whole entry): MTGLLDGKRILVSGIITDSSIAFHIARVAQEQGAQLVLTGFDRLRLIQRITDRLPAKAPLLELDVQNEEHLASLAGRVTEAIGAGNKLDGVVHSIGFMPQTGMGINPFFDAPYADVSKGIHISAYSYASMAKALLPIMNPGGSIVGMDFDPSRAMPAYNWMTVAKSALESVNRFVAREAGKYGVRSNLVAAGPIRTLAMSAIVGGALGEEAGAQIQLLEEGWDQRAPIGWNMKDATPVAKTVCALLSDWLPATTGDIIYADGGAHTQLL

[4] = tested on: Mycobacterium tuberculosis; test: Antimycobacterial activity against Mycobacterium tuberculosis H37Rv assessed as reduction in bacterial growth incubated for 7 days by resazurin dye based assay; assay type: functional; conditions: 168 h, time 7 day
[5] = target: T1, Enoyl-[acyl-carrier-protein] reductase [NADH]; test: Binding affinity to Mycobacterium tuberculosis InhA assessed as dissociation constant
[6] = Inhibition of Mycobacterium tuberculosis RV0078 EthR2
[7] = tested on: Mycobacterium tuberculosis; test: Binding affinity to Mycobacterium tuberculosis RV0078 EthR2 assessed as change in melting temperature at 1 uM by thermal shift assay
[8] = Metabolic stability in mouse liver microsomes assessed as intrinsic clearance; assay type: ADME, Microsome; conditions: read-out: CLH
[9] = Metabolic stability in CD-1 mouse liver microsomes assessed as intrinsic clearance at 20 uM measured after 40 mins by LC-MS/MS analysis; assay type: ADME, Microsome
[10] = tested on: Mycobacterium tuberculosis; test: Antimycobacterial activity against Mycobacterium tuberculosis infected in mouse macrophage cells assessed as bacterial growth inhibition; assay type: functional, organism-based
[11] = tested on: Mycobacterium tuberculosis; test: Antimycobacterial activity against Mycobacterium tuberculosis Erdman infected in BALB/c mouse model assessed as log reduction of bacterial load in lung at 200 mg/kg administered via oral gavage for 2 weeks; assay type: functional
[12] = target: HTH-type transcriptional regulator EthR (Mycobacterium tuberculosis, UniProt P9WMC1); test: Inhibition of Mycobacterium tuberculosis EthR by SPR assay
[13] = target: HTH-type transcriptional regulator EthR (Mycobacterium tuberculosis) (UniProt P9WMC1); test: Binding affinity to Mycobacterium tuberculosis EthR assessed as change in melting temperature at 100 uM by thermal shift assay
[14] = tested on: Mycobacterium tuberculosis; test: Antibacterial activity against Mycobacterium tuberculosis ATCC 27294 assessed as inhibition of cell growth incubated for 7 days by broth dilution method; assay type: functional; conditions: ATCC 27294, 168 h, time 7 day
[15] = tested on: Mycobacterium tuberculosis; test: Antibacterial activity against Mycobacterium tuberculosis ATCC 27294 assessed as reduction in bacterial cell growth measured after 48 hrs by broth microdilution method; assay type: functional
[16] = tested on: Mycobacterium tuberculosis; test: Antimycobacterial activity against Mycobacterium tuberculosis assessed as reduction in microbial growth by broth microdilution method; assay type: functional
[17] = tested on: Mycobacterium tuberculosis; test: Antimycobacterial activity against Mycobacterial tuberculosis assessed as log reduction of bacterial load; assay type: functional
[18] = tested on: Mycobacterium tuberculosis; test: Antimycobacterial activity against Mycobacterium tuberculosis H37Rv assessed as reduction in bacterial cell growth measured after 7 days by resazurin dye based analysis; assay type: functional; conditions: 168 h, time 7 day
[19] = Inhibition of N-terminal His-tagged wild type Mycobacterium tuberculosis Rv1837c GlcB expressed in Escherichia coli BL21 by chromatography method
Dihydrofolate reductase = target: T2, Dihydrofolate reductase (Mycobacterium tuberculosis, UniProt P9WNX1); test: Binding affinity to Mycobacterium tuberculosis DHFR assessed as dissociation constant
T2 sequence (P9WNX1 whole entry): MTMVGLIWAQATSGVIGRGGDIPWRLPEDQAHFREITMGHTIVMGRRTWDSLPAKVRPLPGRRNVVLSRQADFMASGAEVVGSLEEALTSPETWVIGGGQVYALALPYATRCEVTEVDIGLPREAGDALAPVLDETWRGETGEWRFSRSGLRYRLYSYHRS

[20] = target: T3, Dihydrofolate reductase (Mycobacterium tuberculosis) (UniProt P9WNX1); test: Binding affinity to Mycobacterium tuberculosis DHFR assessed as change in melting temperature at 5 uM by thermal shift assay
T3 sequence (whole entry): T2 sequence (P9WNX1 whole entry)

[21] = tested on: Mycobacterium tuberculosis; test: Antimycobacterial activity against Mycobacterium tuberculosis […] assessed as reduction in bacterial growth incubated for 48 hrs by resazurin dye based analysis; assay type: functional
[22] = tested on: Mycobacterium tuberculosis; test: Binding affinity to Mycobacterium tuberculosis RV0078 EthR2 assessed as change in melting temperature at 20 uM by thermal shift assay

HTH-type transcriptional regulator EthR (Mycobacterium tuberculosis), sequence (P9WMC1 whole entry): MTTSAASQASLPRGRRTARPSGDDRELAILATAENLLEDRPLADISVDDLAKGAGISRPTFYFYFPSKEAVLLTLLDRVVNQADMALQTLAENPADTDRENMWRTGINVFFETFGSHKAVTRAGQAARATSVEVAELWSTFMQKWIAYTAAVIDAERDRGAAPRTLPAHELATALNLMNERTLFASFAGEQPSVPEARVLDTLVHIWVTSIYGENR
HTH-type transcriptional regulator EthR, sequence (P9WMC1 whole entry): as above

Molecule `O=C(O)/C=C/c1cccc(C(F)(F)F)c1` has a ΔTm [1] of 3.2 °C.
In the case of `Nc1c(Cl)cc(S(N)(=O)=O)cc1Cl`, the MIC [2] is reported as 833 µM (≈ 201 µg/mL).
For `CC(=O)NC1CCN(c2ncccn2)CC1`, the IC50 ([3]; read-out: pIC50 (converted)) was greater than 1000 µM.
`CC(C)(C)OC(=O)Nc1ccc(I)cc1C(=O)O` showed an MIC90 [4] of 300 µM (≈ 109 µg/mL) and an IC50 ([3]; read-out: IC50) of 280 µM.
With `Cc1cc(N)n(Cc2ccc(C(=O)NCc3ccc(F)cc3Cl)cc2)n1` the Kd [5] was 8 µM.
Molecule `O=C1CC2CCC(C1)N2CCc1ccc(Cl)cc1` has an IC50 [6] of 1 µM, a ΔTm [7] of 3.4 °C and a microsomal CLint [8] of 60 µL/min/mg.
`Cc1cc(N)n(Cc2ccccc2)n1` gave a Kd [5] of 3.3 µM.
`Cc1cc(N)n(Cc2nnc(Nc3ccn(Cc4c(F)cccc4Cl)n3)s2)n1` showed a Kd [5] of 7.1 µM.
In the case of `O=C(NCCC(F)(F)F)c1ccc(-c2noc(C3CC3)n2)cc1`, the CLH [9] is reported as 69 µL/min, the ΔTm [1] is reported as 10.2 °C and the EC50 [10] is reported as 0.07 µM. For the same molecule, the “log(activity)” value [11] was 2.
`O=C(NCc1cccnc1)NC1CCCCC1` gave an IC50 ([3]; read-out: pIC50 (converted)) greater than 1000 µM.
Work on `CNCc1ccc(N2CCCCC2)cc1` yielded an IC50 [12] greater than 100 µM and a ΔTm [13] of 3.8 °C.
With `O=C(O)c1cc(Cl)c(O)c(Cl)c1` the MIC [14] was 971 µM (≈ 201 µg/mL).
With `NS(=O)(=O)c1cc(Cl)cc(Cl)c1` the MIC99 [15] was 111 µM (≈ 25.1 µg/mL).
With `O=C(Nc1ccc(I)cc1C(=O)O)c1ccc(Cl)c(Cl)c1` the MIC90 [4] was 300 µM (≈ 131 µg/mL) and the IC50 ([3]; read-out: IC50) was 38 µM.
For `O=C(OCCCC1CCCC1)N1CCCC1`, the MIC50 [16] was 1 µM.
For `O=C(CCC1CCCC1)N1CCCC1`, the ΔTm [13] was 3 °C.
In the case of `O=C(CCCC1CCCCC1)N1CCCC1`, the MIC50 [16] is reported as 1 µM.
For `COc1ccc(CCC(=O)N2CCC(SS[C@@H]3CCN(C(=O)CCc4ccc(OC)cc4)C3)C2)cc1` (stereo partly drawn), the IC50 [12] was 1.1 µM.
Molecule `Cc1ccn(C(C)c2nnc(Nc3ccn(Cc4c(F)cccc4Cl)n3)s2)n1` (stereo not drawn) has a Kd [5] of 6.3 µM.
In the case of `CC1(C)CCC(Cc2cc(O)c(-c3ccccc3)c(=O)[nH]2)CC1`, the “log(activity)” value [17] is reported as 1.5 and the IC50 ([3]; read-out: pIC50 (converted)) is reported as 10 µM.
`CCNc1nnc(Cn2nc(C)cc2C)s1` gave an IC50 ([3]; read-out: pIC50 (converted)) greater than 1000 µM.
`COc1ccc(-c2nc(O)c3ccccc3n2)cc1` gave an MIC99 [18] of 31.5 µg/mL (≈ 125 µM).
`CCOC(=O)c1cc(Cl)c(O)c(Cl)c1` showed an MIC99 [15] of less than 53 µM.
For `O=C(O)/C(O)=C/C(=O)c1ccc2[nH]ccc2c1`, the IC50 [19] was 0.02 µM.
Work on `N#Cc1ccc(N2CCC(CCC(=O)N3CCCC3)CC2)cc1` yielded a ΔTm [13] of 7.5 °C.
With `O=C(CCc1c[nH]c2ccccc12)Nc1c(C(=O)O)cnn1-c1ccccc1` the Kd (Dihydrofolate reductase) was 0.017 µM and the ΔTm [20] was 5.1 °C.
`O=C(O)/C(O)=C/C(=O)c1ccccc1Br` showed an MIC99 [21] of 6.25 µM (≈ 1.69 µg/mL) and an IC50 [19] of 0.6 µM.
`Cc1c(C(=O)O)cnn1-c1ccccc1` gave a Kd (Dihydrofolate reductase) of 0.64 µM and a ΔTm [20] of 1.2 °C.
For `Cc1cncc(CNC(=O)NC2CCN(c3ncccn3)CC2)c1`, the Kd [5] was 4.7 µM.
With `O=C1CC2CCC(C1)N2CCc1ccc(C(F)(F)F)cc1` the IC50 [6] was 0.2 µM and the ΔTm [22] was 0.6 °C.
